Literature values in patent publication US20080069886A1, “Spironolactone nanoparticles, compositions and methods related thereto” (JAGOTEC AG, priority 2001, published 2008).

Q: Which solubility in water does the source give for `CC(=O)S[C@@H]1CC2=CC(=O)CC[C@]2(C)[C@H]2CC[C@@]3(C)[C@@H](CC[C@@]34CCC(=O)O4)[C@H]12` [Spironolactone] here?
A: Its solubility in water is 2.8 mg/100 ml.
